We go through one compound from patent publication US9663561B2, “Methods of treatment of cancer using SRC-modulating peptides” (The University of Toledo, priority 2006, dated 2017).

The target of assay [1] is T1, GFP-canine α1 and Src-Rluc in 293T cells (Canis lupus familiaris, UniProt P50997).
T1 construct: expressed in transfected cells; host or cells: 293T (human embryo kidney)
Kind of assay: BRET analysis. The format is cell-based, human. The procedure: BRET assay was done as described by Lowry et al. (2002). Briefly, 24 h after transfection with GFP-Na+/K+-ATPase and Src-Rluc or other constructs as indicated, cells were seeded in triplicate in a 96-well microplate. After treatment with indicated concentration of ouabain, cells were exposed to equal volume of BRET analysis buffer containing 10 μM DeepBlue C, the substrate of Rluc. The emission at 410 nm (for Rluc) and 515 nm (for GFP) was immediately acquired using a Fluoroskan Ascent FL (Labsystems, Franklin, Mass.) with microplate luminometric detection. The BRET ratio was calculated as follows: (Emission at 515 nm−Background at 515 nm)/(Emission at 410 nm−Background at 410 nm), where Background signal was assessed in each experiment by measuring the signal of a sample of nontransfected cells.
(BRET reads energy transfer from a luciferase to a nearby fluorophore.)

For assay [2], the target named is T2, purified pig kidney Na+/K+-ATPase (Sus scrofa, UniProt P05024).
T2 construct: Na+/K+-ATPase was purified from pig kidney outer medulla using the Jorgensen method; from tissue; host or cells: pig kidney outer medulla
The assay can be described thus: ATPase activity of purified pig kidney Na+/K+-ATPase. Format: biochemical. The conditions noted are these: 10 μM ouabain. From the text:
Src, without the first 85 amino acid residues, was purified from sf-9 cells as described (Ma et al., 2000) and used in the initial binding assays to ensure that Src binds to the Na+/K+-ATPase, but not the lipid composition in the purified Na+/K+-ATPase preparation. In subsequent experiments (e.g., phosphorylation and activity assays), purified recombinant full-length Src from Upstate Biotechnology was used. Na+/K+-ATPase was purified from pig kidney outer medulla using the Jorgensen method (Xie et al., 1996) and the preparations with specific activities between 1200 and 1400 μmol Pi/mg/h were used.
GST fusion proteins or His-tagged proteins were expressed in Escherichia coli BL21 and purified on glutathione beads or nickel column.

Assay [3] concerns Src and ERKs. The conditions noted are these: cultured cells and animal models; cited from earlier work.
For assay [4], the target named is T3, Src-ECFP and EYFP-rat α1 in LLC-PK1 cells (Rattus norvegicus, UniProt P06685).
T3 construct: expressed in transfected cells; host or cells: LLC-PK1 (pig kidney)
The assay can be described thus: FRET analysis in live cells. The format is cell-based, pig. The conditions noted are these: 100 μM ouabain, live LLC-PK1 cell. The procedure:
LLC-PK1 cells were cotransfected with Src-ECFP and EYFP-rat α1 and grown on a glass coverslip for 24 h. The coverslip was then mounted in a metal chamber and analyzed with a Leica DMIRE2 confocal microscope. The laser lines of 456 nm and 515 nm were used to illuminate fluorescence, and the emission intensities were recorded at 465-509 nm for Src-ECFP and 530-570 nm for EYFP-rat α1. The cell that expresses both Src-ECFP and EYFP-rat α1 was chosen and illuminated by only 456-nm laser. The cells express only Src-ECFP or EYFP-rat α1 were used for correction and determination of the laser intensity as well as the gain and offset settings. The emission intensities for both Src-ECFP and EYFP-rat α1 in selected membrane region was recorded at 465-509 nm (FECFP) and 530-570 nm (FEYEP), respectively. The FRET efficiency was reflected by the ratio of FEYFP/FECFP. After 50 s of recording, the same cell was exposed to ouabain and the recording was continued for indicated time.

Assay [5] deals with Src and ERK1/2. The assay can be described thus: Activation of Src and ERK1/2 in P-11, A4-11, PY-17 and AAC-19 cells (Western blot). Format: cell-based, pig. The conditions noted are these: for Src activation (Tyr(P)418-Src): 100 nM ouabain. The procedure:
FIGS. 18A and 18B. Cells were exposed to 100 nM ouabain for either 5 or 15 min, and the cell lysates (50 μg/lane) were analyzed by Western blot for active Src or active ERK1/2. Blots were probed first with anti-Tyr(P)^418-Src or anti-pERK antibody, then stripped, and reprobed for total Src or ERK1/2 to ensure equal loading.
FIGS. 18 C and 18D. Cells were treated with indicated concentrations of ouabain for 5 min, and total cell lysates were analyzed for Tyr(P)^418-Src and total Src or pERK1/2 and total ERK1/2 as in FIGS. 18A and 18B. A representative Western blot and combined quantitative data are shown. The quantitative data (relative ratio of pSrc/Src or pERK/ERK) from three independent experiments (mean±S.E.) were calculated relative to the control condition of P-11 cells. *, p<0.05 versus the respective control condition of each cell line. con, control.
Cells were washed with PBS, solubilized in modified ice-cold radioimmune precipitation assay buffer, and subjected to immunoprecipitation or Western blot analysis. Protein signal was detected using the enhanced chemiluminescence kit and quantified using a Bio-Rad GS-670 imaging densitometer.

Assay [6] deals with T4, Na+/K+-ATPase/Src complex (Sus scrofa, UniProt P05024).
T4 construct: Na+/K+-ATPase was purified from pig kidney outer medulla using the Jorgensen method; tissue Upstate Biotechnology (Src only); host or cells: pig kidney outer medulla (Na+/K+-ATPase)
Kind of assay: Src kinase activity (commercial kit) of Na+/K+-ATPase-bound Src. The conditions noted are these: 10 μM ouabain. Format: biochemical. As to the method: The Src kinase activity was assayed using a commercial kit (Haas et al., 2000). To determine how Na+/K+-ATPase affects Src kinase activity, the purified Src (4.5 U) was incubated with 5 μg of the purified Na+/K+-ATPase in the Src assay buffer for 30 min at room temperature. Afterward, both control Src or the Na+/K+-ATPase-bound Src were exposed to 10 μM ouabain and Src kinase activity was determined. In other experiments, the Src pY418 was measured by anti-pY418 antibody to indicate Src activation (Ma et al., 2000). To do so, the purified Src (4.5 U) was incubated with different amounts of the purified Na+/K+-ATPase or GST-Na+/K+ATPase constructs in phosphate-buffered saline (PBS) for 30 min at 37° C. Afterward, 2 mM ATP/Mg2+ was added. The reaction continued for 5 min at 37° C. and was stopped by addition of SDS sample buffer.

Assay [7] relates to LLC-PK1 cells. Kind of assay: Tyrosine phosphorylation of Na+/K+-ATPase-associated proteins (anti-α1 immunoprecipitation). The format is cell-based, pig. The conditions noted are these: 1 μM ouabain, 5 min. The procedure:
FIG. 9A. LLC-PK1 cells were treated with 1 μM ouabain for 5 min, and cell lysates were immunoprecipitated with anti-α1 antibody and analyzed for tyrosine phosphorylated proteins.
Cells were lysed in RIPA buffer containing 1% Nonidet P40, 0.25% sodium deoxycholate, 150 mM NaCl, 1 mM EDTA, 1 mM phenylmethylsulfonyl fluoride, 1 mM sodium orthovanadate, 1 mM NaF, 10 μg/ml aprotinin, 10 μg/mlleupeptin, and 50 mM Tris-HCl (pH 7.4). Cell lysates were cleared by centrifugation at 16,000×g for […], and the supernatants (1 mg) were either immunoprecipitated with anti-α1 antibody or incubated with different GST-fusion proteins. The complexes were then pulled down by either protein G agarose or glutathione beads (Ma et al., 2000; Haas et al., 2002) and analyzed by Western blot.

As for `C[C@@H]1O[C@@H](O[C@H]2C[C@@H](O)[C@]3(CO)[C@H]4[C@H](O)C[C@]5(C)[C@@H](C6=CC(=O)OC6)CC[C@]5(O)[C@@H]4CC[C@]3(O)C2)[C@H](O)[C@H](O)[C@H]1O` [ouabain], the “ouabain concentration at which significant decrease in BRET ratio was detected” value in assay [1] is listed as 10 nM. In addition, the BRET ratio entry in assay [1] (different concentrations of ouabain) is listed as “dose-dependent decrease in the BRET ratio”. In addition, the “inhibition of the ATPase activity” value in assay [2] is recorded as “complete inhibition”. Also, the “physiological concentrations able to activate Src and ERKs” value in assay [3] is recorded as 0.1-1 nM. The “FRET between Src-ECFP and EYFP-rat α1” value in assay [4] is on record as “reduction in FRET”. Further, the “Src activation (Tyr(P)418-Src)” value is “significant reduction” in assay [5] (A4-11 cells), “activated Src” in assay [5] (P-11 cells) and “essentially abolished” in assay [5] (PY-17 cells). Moreover, the “dose-response of Src and ERK1/2 activation” value in assay [5] (AAC-19 cells (rat α1 knock-in)) was “shifted the dose-response curve to the right”. For the same compound, the ERK1/2 phosphorylation result in assay [5] (PY-17 cells, ouabain) was “failed to detect any ouabain-induced change”. Also, the “Src kinase activity of Na+/K+-ATPase-bound Src” value in assay [6] was “restored the kinase activity”. For the same compound, the “tyrosine phosphorylation of Na+/K+-ATPase-associated proteins” value in assay [7] is “stimulated tyrosine phosphorylation”.
